The results in this text go back to patent publication US11028051B2, “Tetrahydroquinoline-based bromodomain inhibitors” (St. Jude Children's Research Hospital, priority 2016, dated 2021).

Assay in all cases: competitive TR-FRET assay, BET-BD with acetylated peptide ligand
What all share (format): binding
In general terms: TR-FRET usually uses a lanthanide donor and a delayed reading to cut background.

In one assay the target is BRD2-BD2 (Homo sapiens (Human), UniProt P25440). As to conditions: for EC50: BRD2-BD2, Table 11 additional modifications, read-out: 2.2 EC50; for 2.1/2.2: ratio of BRD2-BD1 EC50 to BRD2-BD2 EC50 (selectivity). How it is done:
(§1) Inhibitor potency was determined using a competitive TR-FRET assay as detailed herein, measuring interaction of the respective BET-BD with an acetylated peptide ligand (Table 2).

In a further assay the target is BRDT (Homo sapiens, UniProt Q58F21). As to conditions: BRDT; Table 11 additional modifications; read-out: BRDT EC50. How it is done:
as §1

In the next assay the target is BRD4-BD2 (Homo sapiens (Human), UniProt O60885). Conditions: BRD4-BD2; Table 11 additional modifications; read-out: 4.2 EC50. How it is done:
as §1

Another assay concerns the target BRD4-BD1 (Homo sapiens (Human), UniProt O60885). Conditions: BRD4-BD1; Table 11 additional modifications; read-out: 4.1 EC50. How it is done: as §1
The next assay concerns the target BRD2-BD1 (Homo sapiens (Human), UniProt P25440). As to conditions: BRD2-BD1; Table 11 additional modifications; read-out: 2.1 EC50. How it is done: as §1
A further assay deals with BRD3-BD1 (Homo sapiens (Human), UniProt Q15059). As to conditions: BRD3-BD1; Table 11 additional modifications; read-out: 3.1 EC50. How it is done: as §1
BRD3-BD1, sequence (Q15059 34-140): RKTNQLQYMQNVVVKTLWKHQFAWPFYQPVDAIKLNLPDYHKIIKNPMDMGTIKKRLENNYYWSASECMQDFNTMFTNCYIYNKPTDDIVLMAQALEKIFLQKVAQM

Each structure is given as a SMILES string.

The term EC50 denotes the concentration that produces a half-maximal response.

BRD2-BD2, sequence (P25440 344-453): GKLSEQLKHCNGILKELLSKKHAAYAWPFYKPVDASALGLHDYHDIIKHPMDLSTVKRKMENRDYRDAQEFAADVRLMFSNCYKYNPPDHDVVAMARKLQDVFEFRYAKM
BRD2-BD1, sequence (P25440 74-180): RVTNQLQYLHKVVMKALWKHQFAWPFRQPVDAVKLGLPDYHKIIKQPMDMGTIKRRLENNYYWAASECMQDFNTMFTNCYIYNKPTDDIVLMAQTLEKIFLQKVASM

`CC(=O)Nc1cccc(-c2ccc3c(c2)[C@H](NC(=O)OC(C)C)C[C@H](C)N3C(C)=O)c1` [compound 1]: the EC50 was 0.29 µM at BRD2-BD2; 5.9 µM on BRDT; 0.23 µM at BRD4-BD2; 0.67 µM on BRD4-BD1; 0.85 µM on BRD2-BD1; 0.62 µM on BRD3-BD1. Further, the 2.1/2.2 at BRD2-BD2 was 2.9.

With `COC(=O)c1cccc(N[C@@H]2C[C@H](C)N(C(C)=O)c3ccc(-c4cccc(NC(C)=O)c4)cc32)c1` [compound 7], the EC50 at BRD2-BD2 turned out to be 0.08 µM; on BRDT, 10 µM; on BRD4-BD2, 81 µM; at BRD4-BD1, 4.8 µM; on BRD2-BD1, 81 µM; at BRD3-BD1 it was 1.6 µM. Moreover, on BRD2-BD2, the 2.1/2.2 is on record as greater than 1000.

With `CC(=O)Nc1cccc(-c2ccc3c(c2)[C@H](N)C[C@H](C)N3C(C)=O)c1` [compound 9], the concentration for a half-maximal effect (EC50) turned out to be 14 µM at BRD2-BD2; 10 µM on BRDT; 15 µM at BRD4-BD2; 47 µM at BRD4-BD1; 12 µM at BRD2-BD1; 10 µM at BRD3-BD1. For the same compound, the 2.1/2.2 on BRD2-BD2 stood at 0.86.

For `CC(=O)Nc1cccc(-c2ccc3c(c2)[C@H](Nc2ccc(N(C)C(C)=O)cc2)C[C@H](C)N3C(C)=O)c1` [compound 11], the EC50 is 0.2 µM on BRD2-BD2; 4.3 µM on BRDT; 51 µM at BRD4-BD2; 3.4 µM at BRD4-BD1; 3.2 µM at BRD2-BD1; 1.6 µM at BRD3-BD1. Moreover, the 2.1/2.2 on BRD2-BD2 was 16.

Regarding `CC(=O)Nc1cccc(-c2ccc3c(c2)[C@H](Nc2ccc4c(c2)COC4=O)C[C@H](C)N3C(C)=O)c1` [compound 12], the EC50 was found to be 0.03 µM at BRD2-BD2; 1.8 µM on BRDT; 0.04 µM at BRD4-BD2; 1.5 µM on BRD4-BD1; 0.93 µM at BRD2-BD1; 0.59 µM at BRD3-BD1. For the same compound, the 2.1/2.2 at BRD2-BD2 stood at 31.

In the case of `CC(=O)Nc1cccc(-c2ccc3c(c2)[C@H](Nc2ccc4c(c2)OCO4)C[C@H](C)N3C(C)=O)c1` [compound 14], the EC50 stood at 0.09 µM on BRD2-BD2; 2.6 µM on BRDT; 0.06 µM on BRD4-BD2; 2 µM at BRD4-BD1; 1.8 µM at BRD2-BD1; 1.19 µM on BRD3-BD1. Further, on BRD2-BD2, the 2.1/2.2 worked out at 20.

As to `COC(=O)c1ccccc1N[C@@H]1C[C@H](C)N(C(C)=O)c2ccc(-c3cccc(NC(C)=O)c3)cc21` [compound 15], the concentration for a half-maximal effect (EC50) was determined as 0.11 µM on BRD2-BD2; 0.7 µM at BRDT; 0.1 µM on BRD4-BD2; 7 µM on BRD4-BD1; 7 µM at BRD2-BD1; 10 µM on BRD3-BD1. The 2.1/2.2 at BRD2-BD2 was 64.

For `CC(=O)Nc1cccc(-c2ccc3c(c2)[C@H](Nc2cncnc2)C[C@H](C)N3C(C)=O)c1` [compound 16], the EC50 on BRD2-BD2 is 0.98 µM; at BRDT it was 17 µM; at BRD4-BD2, 1.9 µM; at BRD4-BD1, 13 µM; on BRD2-BD1 it was 9.8 µM; at BRD3-BD1 it was 6.4 µM. Moreover, on BRD2-BD2, the 2.1/2.2 turned out to be 10.

For `CC(=O)N1c2ccc(-c3ccc4cc[nH]c4c3)cc2[C@H](NC(=O)OC(C)C)C[C@@H]1C` [compound 79], the half-maximal effective concentration (EC50) at BRD2-BD2 worked out at 2.7 µM; at BRD4-BD2, 8.8 µM; on BRD4-BD1, 8.2 µM; at BRD2-BD1 it was 7.1 µM; at BRD3-BD1, 2.2 µM. Further, the 2.1/2.2 at BRD2-BD2 came out at 2.6.

Consider `CC(=O)N1c2ccc(-c3ccc4occc(=O)c4c3)cc2[C@H](NC(=O)OC(C)C)C[C@@H]1C` [compound 80], for which the EC50 on BRD2-BD2 came out at 1.1 µM; on BRD4-BD2, 4 µM; at BRD4-BD1 it was 5.3 µM; at BRD2-BD1, 6.3 µM; at BRD3-BD1, 2.1 µM. The 2.1/2.2 on BRD2-BD2 is 2.0.

As to `CC(=O)N1c2ccc(-c3ccc4[nH]ccc4c3)cc2[C@H](NC(=O)OC(C)C)C[C@@H]1C` [compound 81], the half-maximal effective concentration (EC50) on BRD2-BD2 is 4.7 µM; on BRD4-BD2, 8.1 µM; at BRD4-BD1 it was 6.6 µM; on BRD2-BD1 it was 8 µM; at BRD3-BD1 it was 5.9 µM. For the same compound, the 2.1/2.2 at BRD2-BD2 was determined as 2.7.

For `COC(=O)c1ccoc1-c1ccc2c(c1)[C@H](NC(=O)OC(C)C)C[C@H](C)N2C(C)=O` [compound 82], the 50% effective concentration (EC50) at BRD2-BD2 is 1.1 µM; on BRD4-BD2 it was 2 µM; on BRD4-BD1, 3.5 µM; at BRD2-BD1, 4 µM; on BRD3-BD1 it was 2.7 µM. Also, the 2.1/2.2 on BRD2-BD2 came out at 6.0.

Consider `CCOC(=O)c1ccc(-c2ccc3c(c2)[C@H](NC(=O)OC(C)C)C[C@H](C)N3C(C)=O)o1` [compound 83], for which the concentration giving a half-maximal response (EC50) on BRD2-BD2 is 1.6 µM; at BRD4-BD2, 3.4 µM; at BRD4-BD1, 6 µM; at BRD2-BD1, 7.5 µM; on BRD3-BD1, 4.3 µM. At BRD2-BD2, the 2.1/2.2 was found to be 1.7.

Turning to `CC(=O)N1c2ccc(-c3cccc(NC(=O)OC(C)(C)C)c3)cc2[C@H](NC(=O)OC(C)C)C[C@@H]1C` [compound 84], the EC50 at BRD2-BD2 worked out at 0.46 µM; at BRD4-BD2 it was 3.5 µM; on BRD4-BD1, 2.1 µM; at BRD2-BD1, 2.5 µM; on BRD3-BD1, 0.99 µM. On BRD2-BD2, the 2.1/2.2 turned out to be 2.5.

On to `CC(=O)N1c2ccc(C3=CCCO3)cc2[C@H](NC(=O)OC(C)C)C[C@@H]1C` [compound 85], for which the concentration giving a half-maximal response (EC50) on BRD2-BD2 was determined as 1.2 µM; on BRD4-BD2 it was 12 µM; on BRD4-BD1, 8.5 µM; at BRD2-BD1, 13 µM; on BRD3-BD1, 4.8 µM. Further, the 2.1/2.2 on BRD2-BD2 was 3.6.

Regarding `CC(=O)N1c2ccc(-c3cc4ccccc4o3)cc2[C@H](NC(=O)OC(C)C)C[C@@H]1C` [compound 86], the EC50 on BRD2-BD2 worked out at 27 µM; at BRD4-BD2 it was 41 µM; on BRD4-BD1 it was 2.5 µM; on BRD2-BD1, 1.8 µM; on BRD3-BD1, 1 µM. In addition, the 2.1/2.2 on BRD2-BD2 turned out to be 4.7.

With `CC(=O)N1c2ccc(-c3cccn(C)c3=O)cc2[C@H](NC(=O)OC(C)C)C[C@@H]1C` [compound 87], the 50% effective concentration (EC50) at BRD2-BD2 is 13 µM; at BRD4-BD2, 7.6 µM; at BRD4-BD1, 68 µM; on BRD2-BD1, 68 µM; at BRD3-BD1, 13 µM. Moreover, the 2.1/2.2 on BRD2-BD2 is given as 5.4.

On to `CC(=O)N1c2ccc(-c3cccc(CN)c3)cc2[C@H](NC(=O)OC(C)C)C[C@@H]1C` [compound 88], for which the EC50 on BRD2-BD2 was 0.47 µM; at BRD4-BD2, 0.65 µM; at BRD4-BD1, 2.9 µM; on BRD2-BD1, 2.1 µM; on BRD3-BD1 it was 1.4 µM. Besides, the 2.1/2.2 on BRD2-BD2 amounted to 11.

Take `CC(=O)N1c2ccc(-c3cccc(CCO)c3)cc2[C@H](NC(=O)OC(C)C)C[C@@H]1C` [compound 89]: the 50% effective concentration (EC50) on BRD2-BD2 turned out to be 0.43 µM; on BRD4-BD2, 1.7 µM; on BRD4-BD1, 1.4 µM; at BRD2-BD1, 1.6 µM; at BRD3-BD1 it was 0.87 µM. In addition, the 2.1/2.2 on BRD2-BD2 is 0.067.

`CC(=O)Nc1cccc(-c2ccc3c(c2)[C@H](Nc2ccc(C(=O)O)cc2)C[C@H](C)N3C(C)=O)c1` [compound 120]: the EC50 was found to be 0.13 µM on BRD2-BD2; 0.17 µM on BRD4-BD2; 13 µM at BRD4-BD1; 33 µM at BRD2-BD1; 4.9 µM at BRD3-BD1. Moreover, the 2.1/2.2 on BRD2-BD2 is 3.1.
